Laboratory results published in patent US10583387B2, “Guanidine compounds for carbon dioxide capture” (UT-Battelle, LLC, priority 2017, dated 2020).
Values after ≈ are worked out from the molar mass of the structure shown. Values joined by “and” are separate entries in the source; they are usually repeats but may differ in a detail not shown here. Equal values may be shown once. Blank lines part the entries; values can stand above or below the molecule they belong to.

What was measured:
[1] = cited from earlier work
[2] = cited from earlier work; for reaction rate of CO2 with sorbent: 25° C.
[3] = Differential scanning calorimetry (DSC), enthalpy of CO2 release; format: physicochemical
Text: In order to determine the enthalpy of CO2 release from PyBIGH2(CO3)(H2O)4, differential scanning calorimetry (DSC) was employed. DSC is a common technique used in thermal analysis of solids. […] Unfortunately, the extensive overlap between the peaks prevented a determination of the heats associated with each thermal event. Instead, all the peaks were integrated together to obtain the overall enthalpy of desorption for PyBIGH2(CO3)(H2O)4, which amounts to 223±4 kJ/mol. While the overall reaction is highly endothermic, it should be taken into account that, for each CO2 molecule released from PyBIGH2(CO3)(H2O)4, there are four molecules of hydration that are desorbed (plus a fifth water molecule that is a bi-product of the carbonate decomposition).
In order to determine the fraction of the reaction enthalpy corresponding to the CO2 release from the carbonate, anhydrous PyBIGH2(CO3) was prepared by overnight vacuum pumping of PyBIGH2(CO3)(H2O)4 at 30° C. […] The difference between the measured endotherms of PyBIGH2(CO3)(H2O)4 and PyBIGH2(CO3), of 148 kJ/mol, can be assigned to dehydration of the carbonate salt. This corresponds to an average of 37 kJ/mol per water of hydration, which is close to the enthalpy of vaporization for liquid water, of 40.65 kJ/mol. While a large fraction of the heat required to release the CO2 is spent on water evaporation, part of the waste heat could be recovered by process modifications that involve water condensation steps in which the resulting heat is collected and re-used via heat exchangers. Alternatively, vacuum-drying operations that typically require less energy than heat drying can be employed for dehydration of PyBIGH2(CO3)(H2O)4 prior to CO2 release. The use of renewable sources of energy, such as concentrated solar power, is also herein being considered to make the overall DAC process energy sustainable.

[4] = Reaction enthalpies of elementary steps in DAC with PyBIG (van't Hoff analyses); format: physicochemical; conditions: for ΔH, PyBIGH2(CO3)(H2O)4 crystallization: equation 6
Text: It is instructive to compare the thermodynamics of the CO2 absorption by PyBIG with those of other sorbents used in DAC. For example, amine sorbents have absorption enthalpies in the range of 60-80 kJ/mol. […] Thus, the actual CO2 ‘binding’ by PyBIG, corresponding to equations 3-5 combined, has an enthalpy of −109.8 kJ/mol. This is essentially the same as the enthalpy of CO2 absorption by aqueous NaOH. The crystallization step (equation 6) then adds −47 kJ/mol, to make the overall absorption process a combined −156 kJ/mol, which is about twice as exothermic compared to the CO2 absorption by a typical amine sorbent. However, dissolution of PyBIG (equation 1), which is endothermic (+42.5 kJ/mol) and essentially offsets the exothermic crystallization in step 6, and proton transfer from water to the guanidine groups (equation 2), which is also endothermic (+43.6), brings the overall enthalpy for CO2 capture by PyBIG (equation 7) to −70.7 kJ/mol.

[5] = Thermogravimetric analysis (TGA-MS) and oven heating of the carbonate crystals; format: physicochemical
Text: Thermogravimetric analysis coupled with mass spectrometry (TGA-MS) provided a more quantitative picture of the decomposition process.

[6] = CO2 release and PyBIG regeneration by solar oven heating; format: physicochemical
Experimental: The CO2 release from the PyBIGH2(CO3)(H2O)4 crystals was conducted by solar heating with a solar oven. The oven consists of a vacuum-insulated borosilicate tube placed in the focal point of two adjustable parabolic reflectors. The temperature inside the tube was monitored with a thermocouple. The PyBIGH2(CO3)(H2O)4 samples 36.4-45.0 mg, 0.095-0.118 mmol) were loaded in 1 mL glass vials, which were placed inside the oven tube. The solar oven was then placed in the full sun and oriented to capture the maximum amount of sunlight. The temperature was ramped to the targeted values of 120° C., 130° C., 140° C., 150° C., or 160° C. as fast as possible (typically within 3 to 10 minutes), then held within ±2° C. by intermittently moving the oven out of the sun, or/and closing the reflectors. The samples were subsequently removed from the tube, allowed to cool to room temperature, and weighed to determine their mass loss. The resulting yellow solids were analyzed by FTIR to confirm the disappearance of the carbonate and water peaks. The solar regeneration experiments were repeated three times at each temperature, and the average values and standard deviations calculated.
However, considering that this transformation is highly endothermic, the possibility of using concentrated solar power to render the process more energy sustainable was explored. For the initial small-scale proof of concept, a solar oven was used to heat solid PyBIGH2(CO3)(H2O)4 samples (˜38 mg, 0.1 mmol) at five different temperatures ranging between 120 and 160° C. FTIR analyses corroborated the release of CO2, most evidently noticeable by the disappearance of the strong peak at 1361 cm^−1 corresponding to the stretching mode of the carbonate anion.

[7] = liquid; cited from earlier work
[8] = pKa by potentiometric titration; format: physicochemical; conditions: 25° C., read-out: pKa of the two guanidinium groups
physchem = conditions: pH 10, water, thermodynamic from solid
[9] = Accelerated aging of PyBIG (thermal stability); format: physicochemical
[10] = Aqueous solubility and solubility product (variable-temperature solubility measurements); conditions: saturated solution (~10 mM)
[11] = Equilibrium constant for the amino acid regeneration reaction (equation 11); format: physicochemical; conditions: glycine sorbent, ideal conditions
Text: In addition to the enthalpies of CO2 absorption and release, another important thermodynamic parameter is the equilibrium constant for the amino acid regeneration reaction (equation 10), which defines the efficiency limit for sorbent regeneration.

SMILES: O=C=O [CO2, carbon dioxide]
- ΔH, CO2 dissolution ([1]; equation 3): -4.64 kcal/mol

SMILES: NCC(=O)O [glycine]
- reaction rate of CO2 with sorbent [2]: ~13.9 kM/s

SMILES: O=C(O)O [HCO3^−, bicarbonate]
- ΔH, HCO3^− formation ([1]; equation 4): -12 kcal/mol

SMILES: [Na+].[OH-] [NaOH]
- flux of CO2 absorbed from air ([2]; 1 M solution): around 30 μmol/m^2/s

SMILES: N=C(N)NN=Cc1cccc(C=NNC(=N)N)n1.O.O.O.O.O=C(O)O [PyBIGH2(CO3)(H2O)4]
- average enthalpy per water of hydration [3]: 8.84 kcal/mol
- overall enthalpy of desorption (DSC) ([3]; all peaks between 80 and 140° C. integrated): 53.3 ± 0.96 kcal/mol
- enthalpy of dehydration of the carbonate salt ([3]; difference between endotherms of hydrated and anhydrous salt): 35.4 kcal/mol
- ΔH, PyBIGH2(CO3)(H2O)4 crystallization [4]: -11.2 kcal/mol
- decomposition completion, isothermal TGA ([5]; 80° C., after 300 minutes): 77%
- time to complete loss of carbon dioxide and water, isothermal TGA ([5]; 100° C.): 150 min
- time to complete loss of carbon dioxide and water, isothermal TGA ([5]; 120° C.): 60 min
- mass loss, temperature-ramped TGA ([5]; between 65 and 140° C.): 35.2%
- mass loss of crystals heated in the oven ([5]; one hour at 120° C.): 34.3%
- Weight loss ([6]; 120 ° C., 30 min): 32.3 ± 0.8%
- Weight loss ([6]; 130 ° C., 15 min): 32.3 ± 0.8%
- Weight loss ([6]; 140 ° C., 10 min): 33.2 ± 0.8%
- Weight loss ([6]; 150 ° C., 5 min): 32.5 ± 0.8%
- Weight loss ([6]; 160 ° C., 2 min): 33.8 ± 0.3%

SMILES: N=C(N)NN=Cc1cccc(C=NNC(=N)N)n1.O=C(O)O [PyBIGH2(CO3)]
- enthalpy of the CO2 release (DSC) ([3]; anhydrous carbonate salt): 17.9 ± 1.4 kcal/mol

SMILES: O=C(O)O [CO3^2−, carbonate]
- ΔH, CO3^2− formation ([1]; equation 5): -9.66 kcal/mol

SMILES: O=C([O-])[O-].[Ca+2] [CaCO3, reference compound]
- CO2 release on solar heating ([6]; two hours at 160° C.): no CO2 release was observed

SMILES: O [water]
- enthalpy of vaporization [7]: 9.716 kcal/mol

- pKa [8]: 7.6
- solubility (physchem): ~10 mM (≈ 2470 µg/mL)
- initial weight loss corresponding to CO2 and H2O loss ([9]; 120° C. in open air): 35.3%
- weight loss during accelerated aging (TGA) ([9]; 120° C. in open air for a week, after initial loss): 0.5%
- pH of saturated solution [10]: about 10
- ΔH, PyBIG dissolution ([4]; equation 1): 10.2 kcal/mol
- ΔH, PyBIG protonation ([4]; equation 2, sum of both protonation enthalpies plus twice water deprotonation): 43.6 kJ/mol and 43.6^a kJ/mol
- ΔH, PyBIGH2(CO3)(H2O)4 crystallization [4]: -11.2 kcal/mol
- enthalpy of CO2 'binding' ([4]; equations 3-5 combined): -26.24 kcal/mol
- enthalpy of absorption incl. crystallization step ([4]; equations 3-6 combined): -37.3 kcal/mol
- no decomposition up to (TGA-MS) ([5]; regenerated compound): 190 °C
- log Kreg [11]: 3.5
SMILES: N=C(N)N/N=C/c1cccc(/C=N/NC(=N)N)n1 [PyBIG]

SMILES: CNCC(=O)O [sarcosine]
- reaction rate of CO2 with sorbent [2]: ca. 18.6 kM/s
